Measurements taken from PubChem BioAssay AID2060894 (Molecular Pharmacology Branch, DTP, NCI, 2025).
Values belong to the compound of their own block, whether it stands above or below them.

System: K12877-001-R-J1-PDC complex spheroid viability
Assay: Anticancer human tumor K12877-001-R-J1-PDC patient-derived lung adenocarcinoma cell line growth inhibition [RAS]
Conditions: for IC50: curve of first compound; for viability, T/C: stronger effect = lower value
How it was run: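 Agents were tested in combination matrices in half-log decrements from a top concentration at or near clinical Cmax (10 microM if undetermined). Targets were multi-cell spheroids of tumour lines plus HUVEC and MSC stromal cells.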

[1] = second compound 0.000949 µM, first compound 0.0316 µM
[2] = second compound 0.000949 µM, first compound 0.1 µM
[3] = second compound 0.000949 µM, first compound 0.316 µM
[4] = second compound 0.000949 µM, first compound 1 µM
[5] = second compound 0.003 µM, first compound 0.0316 µM
[6] = second compound 0.003 µM, first compound 0.1 µM
[7] = second compound 0.003 µM, first compound 0.316 µM
[8] = second compound 0.003 µM, first compound 1 µM
[9] = second compound 0.00949 µM, first compound 0.0316 µM
[10] = second compound 0.00949 µM, first compound 0.1 µM
[11] = second compound 0.00949 µM, first compound 0.316 µM
[12] = second compound 0.00949 µM, first compound 1 µM
[13] = second compound 0.03 µM, first compound 0.0316 µM
[14] = second compound 0.03 µM, first compound 0.1 µM
[15] = second compound 0.03 µM, first compound 0.316 µM
[16] = second compound 0.03 µM, first compound 1 µM
[17] = second compound 0.0949 µM, first compound 0.0316 µM
[18] = second compound 0.0949 µM, first compound 0.1 µM
[19] = second compound 0.0949 µM, first compound 0.316 µM
[20] = second compound 0.0949 µM, first compound 1 µM
[21] = second compound 0.3 µM, first compound 0.0316 µM
[22] = second compound 0.3 µM, first compound 0.1 µM
[23] = second compound 0.3 µM, first compound 0.316 µM
[24] = second compound 0.3 µM, first compound 1 µM
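Further: spheroids exposed to agents for one week before readout.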
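Wherever viability, T/C is given: tumour cells co-cultured with HUVEC and mesenchymal stem cells in spheroids.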

IC50 (second compound 0.000949 µM): < 31.6 nM | IC50 (second compound 0.003 µM): < 31.6 nM | IC50 (second compound 0.00949 µM): < 31.6 nM | IC50 (second compound 0.03 µM): < 31.6 nM | IC50 (second compound 0.0949 µM): < 31.6 nM | IC50 (second compound 0.3 µM): < 31.6 nM
Compound: CC(=O)OC12COC1CC(O)C1(C)C(=O)C(O)C3=C(C)C(OC(=O)C(O)C(NC(=O)OC(C)(C)C)c4ccccc4)CC(O)(C(OC(=O)c4ccccc4)C21)C3(C)C (stereo unspecified) + CCn1c(-c2cc(N3CCN(C)CC3)cnc2C(C)OC)c2c3cc(ccc31)-c1csc(n1)CC(NC(=O)C1CC1C)C(=O)N1CCCC(N1)C(=O)OCC(C)(C)C2
viability, T/C [1]: 7.37% | viability, T/C [2]: 5.79% | viability, T/C [3]: 4.69% | viability, T/C [4]: 5.58% | viability, T/C (second compound 0.000949 µM, first compound 3.16 µM): 7.53% | viability, T/C (second compound 0.000949 µM, first compound 10 µM): 12.1% | viability, T/C [5]: 5.77% | viability, T/C [6]: 4.36% | viability, T/C [7]: 3.51% | viability, T/C [8]: 4.48% | viability, T/C (second compound 0.003 µM, first compound 3.16 µM): 5.26% | viability, T/C (second compound 0.003 µM, first compound 10 µM): 14% | viability, T/C [9]: 5.17% | viability, T/C [10]: 4.24% | viability, T/C [11]: 3.37% | viability, T/C [12]: 3.68% | viability, T/C (second compound 0.00949 µM, first compound 3.16 µM): 4.57% | viability, T/C (second compound 0.00949 µM, first compound 10 µM): 12.9% | viability, T/C [13]: 4.63% | viability, T/C [14]: 2.99% | viability, T/C [15]: 3.02% | viability, T/C [16]: 3.05% | viability, T/C (second compound 0.03 µM, first compound 3.16 µM): 4.55% | viability, T/C (second compound 0.03 µM, first compound 10 µM): 10.7% | viability, T/C [17]: 4.19% | viability, T/C [18]: 2.73% | viability, T/C [19]: 2.45% | viability, T/C [20]: 2.46% | viability, T/C (second compound 0.0949 µM, first compound 3.16 µM): 3.56% | viability, T/C (second compound 0.0949 µM, first compound 10 µM): 9.41% | viability, T/C [21]: 3.57% | viability, T/C [22]: 2.99% | viability, T/C [23]: 2.53% | viability, T/C [24]: 2.8% | viability, T/C (second compound 0.3 µM, first compound 3.16 µM): 4.22% | viability, T/C (second compound 0.3 µM, first compound 10 µM): 9.04%

IC50 (second compound 0.000949 µM): 4.82 nM | IC50 (second compound 0.003 µM): 4.39 nM | IC50 (second compound 0.00949 µM): 3.87 nM | IC50 (second compound 0.03 µM): 4.32 nM | IC50 (second compound 0.0949 µM): 3.81 nM | IC50 (second compound 0.3 µM): 2.73 nM
Compound: CCc1c2c(nc3ccc(O)cc13)-c1cc3c(c(=O)n1C2)COC(=O)[C@]3(O)CC + CCn1c(-c2cc(N3CCN(C)CC3)cnc2C(C)OC)c2c3cc(ccc31)-c1csc(n1)CC(NC(=O)C1CC1C)C(=O)N1CCCC(N1)C(=O)OCC(C)(C)C2
viability, T/C (second compound 0.000949 µM, first compound 0.000949 µM): 78.3% | viability, T/C (second compound 0.000949 µM, first compound 0.003 µM): 72.4% | viability, T/C (second compound 0.000949 µM, first compound 0.00949 µM): 18.2% | viability, T/C (second compound 0.000949 µM, first compound 0.03 µM): 7.02% | viability, T/C (second compound 0.000949 µM, first compound 0.0949 µM): 3.48% | viability, T/C (second compound 0.000949 µM, first compound 0.3 µM): 2.43% | viability, T/C (second compound 0.003 µM, first compound 0.000949 µM): 67.2% | viability, T/C (second compound 0.003 µM, first compound 0.003 µM): 68.8% | viability, T/C (second compound 0.003 µM, first compound 0.00949 µM): 13.6% | viability, T/C (second compound 0.003 µM, first compound 0.03 µM): 6.6% | viability, T/C (second compound 0.003 µM, first compound 0.0949 µM): 4.13% | viability, T/C (second compound 0.003 µM, first compound 0.3 µM): 2.12% | viability, T/C (second compound 0.00949 µM, first compound 0.000949 µM): 71.6% | viability, T/C (second compound 0.00949 µM, first compound 0.003 µM): 59.8% | viability, T/C (second compound 0.00949 µM, first compound 0.00949 µM): 15.8% | viability, T/C (second compound 0.00949 µM, first compound 0.03 µM): 6.3% | viability, T/C (second compound 0.00949 µM, first compound 0.0949 µM): 3.36% | viability, T/C (second compound 0.00949 µM, first compound 0.3 µM): 1.64% | viability, T/C (second compound 0.03 µM, first compound 0.000949 µM): 84.9% | viability, T/C (second compound 0.03 µM, first compound 0.003 µM): 67.8% | viability, T/C (second compound 0.03 µM, first compound 0.00949 µM): 11.5% | viability, T/C (second compound 0.03 µM, first compound 0.03 µM): 6.66% | viability, T/C (second compound 0.03 µM, first compound 0.0949 µM): 2.86% | viability, T/C (second compound 0.03 µM, first compound 0.3 µM): 1.43% | viability, T/C (second compound 0.0949 µM, first compound 0.000949 µM): 94.8% | viability, T/C (second compound 0.0949 µM, first compound 0.003 µM): 59.5% | viability, T/C (second compound 0.0949 µM, first compound 0.00949 µM): 13.8% | viability, T/C (second compound 0.0949 µM, first compound 0.03 µM): 5.27% | viability, T/C (second compound 0.0949 µM, first compound 0.0949 µM): 3.05% | viability, T/C (second compound 0.0949 µM, first compound 0.3 µM): 1.38% | viability, T/C (second compound 0.3 µM, first compound 0.000949 µM): 85.1% | viability, T/C (second compound 0.3 µM, first compound 0.003 µM): 46.9% | viability, T/C (second compound 0.3 µM, first compound 0.00949 µM): 9.52% | viability, T/C (second compound 0.3 µM, first compound 0.03 µM): 4.79% | viability, T/C (second compound 0.3 µM, first compound 0.0949 µM): 3.58% | viability, T/C (second compound 0.3 µM, first compound 0.3 µM): 1.11%

IC50 (second compound 0.000949 µM): 13.9 nM | IC50 (second compound 0.003 µM): 13.4 nM | IC50 (second compound 0.00949 µM): 11.6 nM | IC50 (second compound 0.03 µM): 17.5 nM | IC50 (second compound 0.0949 µM): 16.8 nM | IC50 (second compound 0.3 µM): 17.4 nM
Compound: Nc1ccn(C2OC(CO)C(O)C2(F)F)c(=O)n1 (stereo unspecified) + CCn1c(-c2cc(N3CCN(C)CC3)cnc2C(C)OC)c2c3cc(ccc31)-c1csc(n1)CC(NC(=O)C1CC1C)C(=O)N1CCCC(N1)C(=O)OCC(C)(C)C2
viability, T/C (second compound 0.000949 µM, first compound 0.00316 µM): 76.3% | viability, T/C (second compound 0.000949 µM, first compound 0.01 µM): 66.7% | viability, T/C [1]: 8.22% | viability, T/C [2]: 4.35% | viability, T/C [3]: 4.92% | viability, T/C [4]: 5.37% | viability, T/C (second compound 0.003 µM, first compound 0.00316 µM): 62.2% | viability, T/C (second compound 0.003 µM, first compound 0.01 µM): 64% | viability, T/C [5]: 10.9% | viability, T/C [6]: 4.55% | viability, T/C [7]: 4.11% | viability, T/C [8]: 4.17% | viability, T/C (second compound 0.00949 µM, first compound 0.00316 µM): 59.7% | viability, T/C (second compound 0.00949 µM, first compound 0.01 µM): 55.8% | viability, T/C [9]: 9.86% | viability, T/C [10]: 3.95% | viability, T/C [11]: 4.84% | viability, T/C [12]: 4.74% | viability, T/C (second compound 0.03 µM, first compound 0.00316 µM): 93.2% | viability, T/C (second compound 0.03 µM, first compound 0.01 µM): 86.8% | viability, T/C [13]: 10.9% | viability, T/C [14]: 4.44% | viability, T/C [15]: 4.77% | viability, T/C [16]: 3.54% | viability, T/C (second compound 0.0949 µM, first compound 0.00316 µM): 103% | viability, T/C (second compound 0.0949 µM, first compound 0.01 µM): 80.9% | viability, T/C [17]: 12.4% | viability, T/C [18]: 3.68% | viability, T/C [19]: 3.46% | viability, T/C [20]: 4.36% | viability, T/C (second compound 0.3 µM, first compound 0.00316 µM): 84.6% | viability, T/C (second compound 0.3 µM, first compound 0.01 µM): 80.6% | viability, T/C [21]: 17% | viability, T/C [22]: 2.67% | viability, T/C [23]: 3.61% | viability, T/C [24]: 2.74%
